Assay results published in patent US20250171438A1 (Agios Pharmaceuticals, Inc., priority 2022, published 2025).

Target: T1, human PAH with the R408W mutation (Homo sapiens, UniProt P00439, R408W)
T1 construct: expressed in transfected cells
T1 sequence (P00439 1-452 R408W): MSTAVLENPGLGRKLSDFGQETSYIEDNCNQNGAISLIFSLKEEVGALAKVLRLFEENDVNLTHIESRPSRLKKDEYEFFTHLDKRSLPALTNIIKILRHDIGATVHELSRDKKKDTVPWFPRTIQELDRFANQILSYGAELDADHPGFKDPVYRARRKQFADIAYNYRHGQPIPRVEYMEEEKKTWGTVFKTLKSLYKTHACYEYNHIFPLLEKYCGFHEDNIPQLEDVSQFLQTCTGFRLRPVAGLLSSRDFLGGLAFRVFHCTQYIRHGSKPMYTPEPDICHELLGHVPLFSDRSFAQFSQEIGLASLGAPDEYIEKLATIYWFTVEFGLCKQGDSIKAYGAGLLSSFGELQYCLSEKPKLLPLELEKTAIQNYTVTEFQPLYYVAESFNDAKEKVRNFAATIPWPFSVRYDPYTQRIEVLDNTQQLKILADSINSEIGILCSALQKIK
Assay: Cell Based Phenylalanine Flux Assay
Conditions: A375 cells expressing human R408W PAH; 24 hrs compound incubation; 13C-Tyrosine by LC-MS; average where tested multiple times; read-out: AC50

First: O=C(c1nnc(-c2ccc(F)cn2)o1)N1CCc2[nH]cnc2[C@H]1c1nc2c(F)cccc2s1 [Example 1711, (S)-(4-(4-fluorobenzo[d]thiazol-2-yl)-6,7-dihydro-1H-imidazo[4,5-c]pyridin-5(4H)-yl)(5-(5-fluoropyridin-2-yl)-1,3,4-oxadiazol-2-yl)methanone]
Second: O=C(c1nnc(-c2ccc(F)cn2)o1)N1CCc2[nH]cnc2[C@@H]1c1nc2c(F)cccc2s1 [Example 1712, (R)-(4-(4-fluorobenzo[d]thiazol-2-yl)-6,7-dihydro-1H-imidazo[4,5-c]pyridin-5(4H)-yl)(5-(5-fluoropyridin-2-yl)-1,3,4-oxadiazol-2-yl)methanone]
The AC50 of the first is higher: 1000 to 5000 nM for the first, < 500 nM for the second.

Compared with N#Cc1nc(-c2ccccn2)oc1C(=O)N1CCc2[nH]cnc2[C@@H]1c1nc2ccccc2s1 [Example 1713, (R)-5-(4-(benzo[d]thiazol-2-yl)-4,5,6,7-tetrahydro-1H-imidazo[4,5-c]pyridine-5-carbonyl)-2-(pyridin-2-yl)oxazole-4-carbonitrile], N#Cc1nc(-c2ccccn2)oc1C(=O)N1CCc2[nH]cnc2[C@H]1c1nc2ccccc2s1 [Example 1714, (S)-5-(4-(benzo[d]thiazol-2-yl)-4,5,6,7-tetrahydro-1H-imidazo[4,5-c]pyridine-5-carbonyl)-2-(pyridin-2-yl)oxazole-4-carbonitrile] is lower in AC50: > 5000 nM for the first, < 500 nM for the second.

Compared with O=C(c1oc(NC2CC2)nc1C(F)F)N1CCc2[nH]cnc2[C@H]1c1nc2ccccc2s1 [Example 1715], O=C(c1oc(NC2CC2)nc1C(F)F)N1CCc2[nH]cnc2[C@@H]1c1nc2ccccc2s1 [Example 1716, (R)-(4-(benzo[d]thiazol-2-yl)-6,7-dihydro-1H-imidazo[4,5-c]pyridin-5(4H)-yl)(2-(cyclopropylamino)-4-(difluoromethyl)oxazol-5-yl)methanone] is higher in AC50: < 500 nM for the first, 1000 to 5000 nM for the second.

Compared with O=C(c1nnc(-c2ccccn2)o1)N1CCc2[nH]cnc2[C@@H]1c1nc2cccc(F)c2s1 [Example 1717, (R)-(4-(7-fluorobenzo[d]thiazol-2-yl)-6,7-dihydro-1H-imidazo[4,5-c]pyridin-5(4H)-yl)(5-(pyridin-2-yl)-1,3,4-oxadiazol-2-yl)methanone], O=C(c1nnc(-c2ccccn2)o1)N1CCc2[nH]cnc2[C@H]1c1nc2cccc(F)c2s1 [Example 1718, (S)-(4-(7-fluorobenzo[d]thiazol-2-yl)-6,7-dihydro-1H-imidazo[4,5-c]pyridin-5(4H)-yl)(5-(pyridin-2-yl)-1,3,4-oxadiazol-2-yl)methanone] is lower in AC50: 500 to 1000 nM for the first, < 500 nM for the second.

First: O=C(c1nnc(-c2ccccn2)o1)N1CCc2[nH]cnc2[C@@H]1c1nc2ccc(F)cc2s1 [Example 1719, (R)-(4-(6-fluorobenzo[d]thiazol-2-yl)-6,7-dihydro-1H-imidazo[4,5-c]pyridin-5(4H)-yl)(5-(pyridin-2-yl)-1,3,4-oxadiazol-2-yl)methanone]
Second: O=C(c1nnc(-c2ccccn2)o1)N1CCc2[nH]cnc2[C@H]1c1nc2ccc(F)cc2s1 [Example 1720, (S)-(4-(6-fluorobenzo[d]thiazol-2-yl)-6,7-dihydro-1H-imidazo[4,5-c]pyridin-5(4H)-yl)(5-(pyridin-2-yl)-1,3,4-oxadiazol-2-yl)methanone]
The AC50 of the first is higher: 1000 to 5000 nM for the first, < 500 nM for the second.

First: Cn1nc(Cl)cc1C(=O)N1CCc2[nH]cnc2[C@H]1c1nc2c(F)cccc2s1 [Example 1721]
Second: Cn1nc(Cl)cc1C(=O)N1CCc2[nH]cnc2[C@@H]1c1nc2c(F)cccc2s1 [Example 1722, (R)-(3-chloro-1-methyl-1H-pyrazol-5-yl)(4-(4-fluorobenzo[d]thiazol-2-yl)-6,7-dihydro-1H-imidazo[4,5-c]pyridin-5(4H)-yl)methanone]
The AC50 of the first is lower: < 500 nM for the first, 1000 to 5000 nM for the second.

COCCn1nccc1C(=O)N1CCc2[nH]cnc2[C@H]1c1nc2c(F)cccc2s1 [Example 1723, (S)-(4-(4-fluorobenzo[d]thiazol-2-yl)-6,7-dihydro-1H-imidazo[4,5-c]pyridin-5(4H)-yl)(1-(2-methoxyethyl)-1H-pyrazol-5-yl)methanone] and COCCn1nccc1C(=O)N1CCc2[nH]cnc2[C@@H]1c1nc2c(F)cccc2s1 [Example 1724, (R)-(4-(4-fluorobenzo[d]thiazol-2-yl)-6,7-dihydro-1H-imidazo[4,5-c]pyridin-5(4H)-yl)(1-(2-methoxyethyl)-1H-pyrazol-5-yl)methanone] cannot be ordered by AC50: < 500 nM for the first, < 500 nM for the second.

Compared with Cn1nncc1C(=O)N1CCc2[nH]cnc2[C@H]1c1nc2c(F)cccc2s1 [Example 1725], Cn1nncc1C(=O)N1CCc2[nH]cnc2[C@@H]1c1nc2c(F)cccc2s1 [Example 1726, (R)-(4-(4-fluorobenzo[d]thiazol-2-yl)-6,7-dihydro-1H-imidazo[4,5-c]pyridin-5(4H)-yl)(1-methyl-1H-1,2,3-triazol-5-yl)methanone] is higher in AC50: 500 to 1000 nM for the first, 1000 to 5000 nM for the second.

Compared with Cn1cc(-c2nnc(C(=O)N3CCc4[nH]cnc4[C@@H]3c3nc4c(F)cccc4s3)o2)cn1 [Example 1727, (R)-(4-(4-fluorobenzo[d]thiazol-2-yl)-6,7-dihydro-1H-imidazo[4,5-c]pyridin-5(4H)-yl)(5-(1-methyl-1H-pyrazol-4-yl)-1,3,4-oxadiazol-2-yl)methanone], Cn1cc(-c2nnc(C(=O)N3CCc4[nH]cnc4[C@H]3c3nc4c(F)cccc4s3)o2)cn1 [Example 1728, (S)-(4-(4-fluorobenzo[d]thiazol-2-yl)-6,7-dihydro-1H-imidazo[4,5-c]pyridin-5(4H)-yl)(5-(1-methyl-1H-pyrazol-4-yl)-1,3,4-oxadiazol-2-yl)methanone] is lower in AC50: 1000 to 5000 nM for the first, < 500 nM for the second.

First: COCCc1nc(C)c(C(=O)N2CCc3[nH]cnc3[C@H]2c2nc3ccccc3s2)o1 [Example 1729, (S)-(4-(benzo[d]thiazol-2-yl)-1,4,6,7-tetrahydro-5H-imidazo[4,5-c]pyridin-5-yl)(2-(2-methoxyethyl)-4-methyloxazol-5-yl)methanone]
Second: COCCc1nc(C)c(C(=O)N2CCc3[nH]cnc3[C@@H]2c2nc3ccccc3s2)o1 [Example 1730, (R)-(4-(benzo[d]thiazol-2-yl)-1,4,6,7-tetrahydro-5H-imidazo[4,5-c]pyridin-5-yl)(2-(2-methoxyethyl)-4-methyloxazol-5-yl)methanone]
The AC50 of the first is lower: 500 to 1000 nM for the first, > 5000 nM for the second.

First: Cn1nc(C(F)F)cc1C(=O)N1CCc2[nH]cnc2[C@H]1c1nc2c(F)cccc2s1 [Example 1731, (S)-(3-(difluoromethyl)-1-methyl-1H-pyrazol-5-yl)(4-(4-fluorobenzo[d]thiazol-2-yl)-6,7-dihydro-1H-imidazo[4,5-c]pyridin-5(4H)-yl)methanone]
Second: Cn1nc(C(F)F)cc1C(=O)N1CCc2[nH]cnc2[C@@H]1c1nc2c(F)cccc2s1 [Example 1732, (R)-(3-(difluoromethyl)-1-methyl-1H-pyrazol-5-yl)(4-(4-fluorobenzo[d]thiazol-2-yl)-6,7-dihydro-1H-imidazo[4,5-c]pyridin-5(4H)-yl)methanone]
The AC50 of the first is lower: < 500 nM for the first, 1000 to 5000 nM for the second.

Cn1ncc(Cl)c1C(=O)N1CCc2[nH]cnc2[C@H]1c1nc2c(F)cccc2s1 [Example 1733] and Cn1ncc(Cl)c1C(=O)N1CCc2[nH]cnc2[C@@H]1c1nc2c(F)cccc2s1 [Example 1734, (R)-(4-chloro-1-methyl-1H-pyrazol-5-yl)(4-(4-fluorobenzo[d]thiazol-2-yl)-6,7-dihydro-1H-imidazo[4,5-c]pyridin-5(4H)-yl)methanone] fall in the same range of AC50: 500 to 1000 nM for the first, 500 to 1000 nM for the second.

Compared with O=C(c1ccnn1C1CC1)N1CCc2[nH]cnc2[C@H]1c1nc2c(F)cccc2s1 [Example 1735], O=C(c1ccnn1C1CC1)N1CCc2[nH]cnc2[C@@H]1c1nc2c(F)cccc2s1 [Example 1736, (R)-(1-cyclopropyl-1H-pyrazol-5-yl)(4-(4-fluorobenzo[d]thiazol-2-yl)-6,7-dihydro-1H-imidazo[4,5-c]pyridin-5(4H)-yl)methanone] is higher in AC50: < 500 nM for the first, 1000 to 5000 nM for the second.

Compared with O=C(c1ccnn1CC(F)(F)F)N1CCc2[nH]cnc2[C@H]1c1nc2c(F)cccc2s1 [Example 1737, (S)-(4-(4-fluorobenzo[d]thiazol-2-yl)-6,7-dihydro-1H-imidazo[4,5-c]pyridin-5(4H)-yl)(1-(2,2,2-trifluoroethyl)-1H-pyrazol-5-yl)methanone], O=C(c1ccnn1CC(F)(F)F)N1CCc2[nH]cnc2[C@@H]1c1nc2c(F)cccc2s1 [Example 1738, (R)-(4-(4-fluorobenzo[d]thiazol-2-yl)-6,7-dihydro-1H-imidazo[4,5-c]pyridin-5(4H)-yl)(1-(2,2,2-trifluoroethyl)-1H-pyrazol-5-yl)methanone] is higher in AC50: < 500 nM for the first, 1000 to 5000 nM for the second.

First: O=C(c1ccnn1C(F)F)N1CCc2[nH]cnc2[C@H]1c1nc2c(F)cccc2s1 [Example 1739]
Second: O=C(c1ccnn1C(F)F)N1CCc2[nH]cnc2[C@@H]1c1nc2c(F)cccc2s1 [Example 1740, (R)-(1-(difluoromethyl)-1H-pyrazol-5-yl)(4-(4-fluorobenzo[d]thiazol-2-yl)-6,7-dihydro-1H-imidazo[4,5-c]pyridin-5(4H)-yl)methanone]
The AC50 of the first is lower: < 500 nM for the first, 1000 to 5000 nM for the second.

First: Cc1nn(C)c(Cl)c1C(=O)N1CCc2[nH]cnc2[C@@H]1c1nc2c(F)cccc2s1 [Example 1741, (R)-(5-chloro-1,3-dimethyl-1H-pyrazol-4-yl)(4-(4-fluorobenzo[d]thiazol-2-yl)-6,7-dihydro-1H-imidazo[4,5-c]pyridin-5(4H)-yl)methanone]
Second: Cc1nn(C)c(Cl)c1C(=O)N1CCc2[nH]cnc2[C@H]1c1nc2c(F)cccc2s1 [Example 1742]
The AC50 of the first is higher: 1000 to 5000 nM for the first, < 500 nM for the second.
